Results on 11 compounds are retold here after patent US20260109672A1, “SARS-COV-2 MPRO INHIBITORS AND USES THEREOF” (NXERA PHARMA UK LIMITED, priority 2022, published 2026).

Bounds are passed on as bounds.

Series [1] has as its target T1, SARS-CoV-2 Mpro (Severe acute respiratory syndrome coronavirus 2, UniProt P0DTD1). As to the kind of experiment: SARS-CoV-2 Mpro enzyme assay (FRET). To be noted: 20 nM Mpro, 30 min preincubation at 30° C., mean n=2, read-out: SARS-CoV-2 Mpro enzyme pKi assay pKi (converted). Format: biochemical.
In series [2] the test system is P-glycoprotein (P-gp, MDR1). Briefly: MDCK-MDR1 permeability and P-gp substrate assay. Format: in vitro ADME, canine. Particulars: dog, pH 7.4, MDCK-MDR1, apical to basolateral, without P-gp inhibitor. Here is the method:
Permeability and drug efflux of certain example compounds was investigated using the following assay.
Test compound was added to either the apical side of a confluent monolayer of MDCK-MDR1 (Madin-Darby canine kidney cells stably transfected to express active P-glycoprotein) and permeability was measured by monitoring the appearance of the test compound on the basolateral side of the monolayer using LC-MS/MS. Experiments were performed in the absence and presence of a P-glycoprotein (P-gp) inhibitor elacridar (2 μM) to determine whether the compound was subject to P-gp mediated efflux.
MDCK-MDR1 cells obtained from the NIH (Rockville, MD, USA) were used between passage numbers 6-30. […]
For assessment of A-B permeability, HBSS was removed from the apical compartment and replaced with test compound dosing solution or test compound plus P-gp inhibitor dosing solutions. […] Test compound permeability was assessed in duplicate. […]
Test and control compounds were quantified by LC-MS/MS cassette analysis using a 7-point calibration with appropriate dilution of the samples. The starting concentration (C0) was determined from the dosing solution and the experimental recovery calculated from C0 and both apical and basolateral compartment concentrations.
The permeability coefficient (Papp) for each compound in the absence and presence of a P-gp inhibitor was calculated from the following equation: […]

Series [3] relates to SARS-CoV-2 infection. To be noted: approved in selected countries for limited use; Zhou et al.; cited from earlier work.
For series [4] the following is noted: Pedersen et al.; cited from earlier work.
The target of series [5] is T1, SARS-CoV-2 Mpro. Briefly: Modified SARS-CoV-2 Mpro enzyme assay (FRET, kinetic read) for reference examples. Type of series: biochemical. To be noted: 5 nM Mpro, 20 min preincubation at room temperature, mean n=2, set out in PCT/GB2022/050836, read-out: SARS-CoV-2 Mpro enzyme pKi assay pKi (converted).
For series [6], the system named is live virus. To be noted: cited from earlier work.
Series [7] has as its system ten further coronavirus strains. To be noted: read-out: Ki values against ten further coronavirus strains; cited from earlier work.

As to `CC(C)(C)[C@H](NC(=O)C(F)(F)F)C(=O)N1C[C@H]2[C@@H]([C@H]1C(=O)NC(C[C@@H]1CCNC1=O)C(=O)C(=O)NC1CC1)C2(C)C` (stereo partly drawn) [Example 1, (1R,2S,5S)-N-(4-(cyclopropylamino)-3,4-dioxo-1-((S)-2-oxopyrrolidin-3-yl)butan-2-yl)-3-((S)-3,3-dimethyl-2-(2,2,2-trifluoroacetamido)butanoyl)-6,6-dimethyl-3-azabicyclo[3.1.0]hexane-2-carboxamide], the Ki in series [1] was 3.98 nM. Further, the apical-to-basolateral permeability (Papp A→B) (commonly the apparent permeability from the apical to the basolateral side of a cell layer) at 60 min, 1 μM in series [2] is 0.9 ×10⁻⁶ cm/s.

Consider `CC(C)(C)[C@H](NC(=O)C(F)(F)F)C(=O)N1C[C@H]2[C@@H]([C@H]1C(=O)NC(C[C@H]1CCCNC1=O)C(=O)C(=O)NC1CC1)C2(C)C` (stereo partly drawn) [Example 6, (1R,2S,5S)-N-[3-(cyclopropylamino)-2,3-dioxo-1-[[(3R)-2-oxo-3-piperidyl]methyl]propyl]-3-[(2S)-3,3-dimethyl-2-[(2,2,2-trifluoroacetyl)amino]butanoyl]-6,6-dimethyl-3-azabicyclo[3.1.0]hexane-2-carboxamide], for which the Ki in series [1] is 10 nM.

Turning to `NC(=O)c1nc(F)c[nH]c1=O` [favipiravir], in series [3], the “Effect in treatment of SARS-CoV-2 infection” value is “modest effects”.

Consider `CC(C)[C@H](NC(=O)C(F)(F)F)C(=O)N1C[C@H]2[C@@H]([C@H]1C(=O)NC(CC1CC1)C(=O)C(N)=O)C2(C)C` (stereo partly drawn) [Example 3, (1R,2S,5S)-N-[3-amino-1-(cyclopropylmethyl)-2,3-dioxo-propyl]-6,6-dimethyl-3-[(2S)-3-methyl-2-[(2,2,2-trifluoroacetyl)amino]butanoyl]-3-azabicyclo[3.1.0]hexane-2-carboxamide], for which, in series [1], the Ki was 63.1 nM.

On to `CC1(C)[C@@H]2[C@@H](C(=O)NC(C[C@@H]3CCNC3=O)C(=O)C(=O)NC3CC3)N(C(=O)/C=C/c3ccc(F)cc3F)C[C@@H]21` (stereo partly drawn) [Example 7, (1R,2S,5S)-N-(4-(cyclopropylamino)-3,4-dioxo-1-((S)-2-oxopyrrolidin-3-yl)butan-2-yl)-3-((E)-3-(2,4-difluorophenyl)acryloyl)-6,6-dimethyl-3-azabicyclo[3.1.0]hexane-2-carboxamide], for which the Ki in series [1] was 63.1 nM.

As to `CC(C)C[C@H](NC(=O)OCc1ccccc1)C(=O)N[C@@H](C[C@@H]1CCNC1=O)C(O)S(=O)(=O)[O-].[Na+]` (some centres unmarked) [GC376], the “Side effects in trials performed in cats” value in series [4] is “side effects”.

As for `CC(C)(C)[C@H](NC(=O)C(F)(F)F)C(=O)N1C[C@H]2[C@@H]([C@H]1C(=O)NC(CC1CCC1)C(=O)C(N)=O)C2(C)C` (stereo partly drawn) [Example 4, (1R,2S,5S)-N-[3-amino-1-(cyclobutylmethyl)-2,3-dioxo-propyl]-3-[(2S)-3,3-dimethyl-2-[(2,2,2-trifluoroacetyl)amino]butanoyl]-6,6-dimethyl-3-azabicyclo[3.1.0]hexane-2-carboxamide], the Ki in series [1] was 79.4 nM.

For `CC(C)C(=O)N[C@H](C(=O)N1C[C@H]2[C@@H]([C@H]1C(=O)NC(C[C@@H]1CCNC1=O)C(=O)C(=O)NC1CC1)C2(C)C)C(C)(C)C` (some centres unmarked) [Example 5], the Ki in series [1] was 15.8 nM.

On to `CC(C)C(=O)N[C@H](C(=O)N1C[C@H]2[C@@H]([C@H]1C(=O)NC(CC1CC1)C(=O)C(=O)C#N)C2(C)C)C(C)(C)C` (some centres unmarked) [Example 27], for which the Ki in series [5] was over 5010 nM.

For the compound PF-00835231, the “Activity in cell-based live virus assays” value in series [6] is about 1 µM. For the same compound, in series [7], the Ki is 0.03 to 4 nM.

For `CNC(=O)C(=O)C(CC1CC1)NC(=O)[C@@H]1[C@@H]2[C@H](CN1C(=O)[C@@H](NC(=O)C(F)(F)F)C(C)(C)C)C2(C)C` (stereo partly drawn) [Example 2, (1R,2S,5S)-N-[1-(cyclopropylmethyl)-3-(methylamino)-2,3-dioxo-propyl]-3-[(2S)-3,3-dimethyl-2-[(2,2,2-trifluoroacetyl)amino]butanoyl]-6,6-dimethyl-3-azabicyclo[3.1.0]hexane-2-carboxamide], the Ki in series [1] was 20 nM. The apparent permeability from apical to basolateral (Papp A→B) at 60 min, 1 μM in series [2] amounted to 2.2 ×10⁻⁶ cm/s.
